Measurements published in patent US12303724B2, “Non-adult human dosing of anti-CD30 antibody-drug conjugates for treatment of hematological or lymphoid cancer” (priority 2016, dated 2025).

Tests used:
Type in all cases: in vivo, human
[1] = Phase 1/2 pediatric study of brentuximab vedotin: serum pharmacokinetics; conditions: pediatric patients, 1.4 or 1.8 mg/kg body weight every 3 weeks, AUC versus age (FIG. 1A)
Source text: This study had assessment of pharmacokinetics of BV in pediatric patients as one of its objectives.
The goal of phase 1 portion of the study was to establish safety and define MTD (maximum tolerated dose) of brentuximab vedotin in pediatric hematological malignancies with high expression of CD30, both HL and ALCL were included in the phase 1 study population. The phase 2 study was designed to administer brentuximab vedotin at the RP2D (recommended phase II dose) determined as the MTD [Maximum Tolerated Dose] in the phase 1 portion of the study.
Blood samples for determining BV levels from the serum were obtained at several time points during treatment with BV at the dose of 1.4 or 1.8 mg/kg body weight every 3 weeks. These doses were within the range of doses that were previously determined to be safe and efficacious in the adult population in earlier studies (Younes, et al., N. Engl J Med 363; 19, Nov. 2010).
The pharmacokinetic analyses described here included pharmacokinetic data from 30 pediatric patients for the initial analyses.

[2] = tested on: relapsed or refractory (r/r) Hodgkin Lymphoma (HL) or systemic anaplastic large-cell lymphoma (sALCL); experiment: Example 2: BSA-based BV monotherapy in pediatric patients
Description: Pediatric study subjects are administered BV (administered IV infusion, once every three weeks (21 days)) at a dose of 71.5 mg/m^2. Each 21-day treatment cycle is composed of 1 day study drug treatment, followed by a monitoring period of 20 days. Patients may receive BV for up to 16 cycles. Objective response rates (ORR; complete remission (CR)+ partial remission (PR)) are determined by an independent review facility (IRF) using PET, CT, MRI and, clinical assessment according to the International Working Group (IWG) Revised Response Criteria for Malignant Lymphoma. Time to progression (from the first dose of study treatment to the date of first documented progressive disease), time to response (from the first dose of study treatment to the date of first documentation of a complete or partial response), duration of response (from the date of first documentation of a response to the date of progressive disease), event-free survival (from first dose until treatment failure), progression-free survival (PFS; from the first dose of study treatment to disease progression or death), and overall survival (OS; from the first dose of study treatment to date of death) are also evaluated. Patients are followed for progression-free survival (PFS) and overall survival (OS) every 12 weeks for 12 months after the end of treatment (EOT) visit. […]

[3] = tested on: CD30-positive cutaneous t-cell lymphomas; experiment: Example 5: BSA-based BV versus methotrexate or bexarotene in pediatric patients; conditions: BV 71.5 mg/m^2 IV every three weeks, monotherapy, up to 16 cycles
Description: Pediatric (non adult human) patients with CD30-positive cutaneous t-cell lymphomas (Primary Cutaneous Anaplastic Large Cell Lymphoma, Mycosis Fungoides, Cutaneous T-Cell Lymphoma) are provided. Study subjects are randomly assigned to one of the following treatments: 1) BV (administered IV, once every three weeks (21 days)) at a dose of 71.5 mg/m^2 as monotherapy for up to a total of 16 cycles; or 2) physician's choice of methotrexate or bexarotene (methotrexate is administered orally (5 to 50 mg) once weekly; dose adjustment is guided by patient response and toxicity or bexarotene is administered orally (300 mg/m^2) once daily with meals).
The proportion of patients achieving an objective response (ORR; complete remission (CR)+partial remission (PR)) that lasts at least 4 months is evaluated. The proportion of patients achieving complete response (CR) and progression-free survival (PFS) are also evaluated.

Substance: brentuximab vedotin
- systemic exposure to BV as measured by the Area Under the concentration-time Curve (AUC) [1]: decrease in age from about 18 years led to decrease systemic exposure to BV
- CR, PR, PFS, OS relative to treatments without BV ([2]; 71.5 mg/m^2 IV once every three weeks, up to 16 cycles): one or more of improved CR, PR, PFS, or OS
- CR, PR, PFS, OS of BSA-adjusted doses relative to weight-adjusted dose ([2]; 71.5 mg/m^2 versus BV at a weight-adjusted dose): one or more of improved CR, PR, PFS or OS
- ORR, CR, PFS relative to methotrexate or bexarotene [3]: one or more of improved ORR, CR or PFS
